# Experimental data: ChEMBL document CHEMBL3596151, “Elucidation of the in vitro and in vivo activities of bridged 1,2,4-trioxolanes, bridged 1,2,4,5-tetraoxanes, tricyclic monoperoxides, silyl peroxides, and hydroxylamine derivatives against Schistosoma mansoni” (Bioorg Med Chem, 2015)
# Activity calls are given as the source filed them. The calls are words filed in the database; no cut-off is given here.
# System: Schistosoma mansoni
# Assay: Antischistosomal activity against newly transformed Schistosoma mansoni cercariae assessed as decrease in viability after 72 hrs by microscopic analysis
# Type: functional, organism-based
# Conditions: not given
row,Compound,IC50 [µM]
1,CC(C)(C)C1CCC2(CC1)OO[Si](C)(C)CC[Si](C)(C)OO2,4
2,CC(=O)[C@@]1(Cc2ccc(Br)cc2)CC[C@]2(C)OO[C@@]1(C)O2,2.2
3,CC(=O)[C@]1(Cc2ccc(Cl)cc2)CC[C@]2(C)OO[C@@]1(C)O2,2.8
4,CC(=O)[C@]1(Cc2ccc([N+](=O)[O-])cc2)CC[C@]2(C)OO[C@@]1(C)O2,5.7
5,CC(=O)CCC1(Cc2ccc(C)cc2)[C@]2(C)OO[C@@]1(C)OO2 (some centres undefined),5.2
6,CC(=O)CCC1(Cc2ccc(Cl)cc2)[C@]2(C)OO[C@@]1(C)OO2 (some centres undefined),3.5
7,CC(C)C[C@@]12OO[C@]3(C)OC(C)(CCC31)O2,2
8,CC(=O)[C@@]1(Cc2ccccc2)CC[C@]2(C)OO[C@@]1(C)O2,5.6
9,CC1[C@]2(C)OO[C@@]1(C13CC4CC(CC(C4)C1)C3)OO2 (some centres undefined),4
10,CC(=O)[C@]1(Cc2ccc(Br)cc2)CC[C@]2(C)OO[C@@]1(C)O2,6.2
11,CC(=O)CCC1(Cc2ccc(Br)cc2)[C@]2(C)OO[C@@]1(C)OO2 (some centres undefined),1.3
12,CC(=O)[C@]1(Cc2ccccc2)CC[C@]2(C)OO[C@@]1(C)O2,0.4
13,CC(C)C[C@]12OO[C@](C)(OO1)C2C12CC3CC(CC(C3)C1)C2 (some centres undefined),0.9
14,CC[C@]12C[C@](C34CC5CC(CC(C5)C3)C4)(OO1)OO2,1.8
15,CC(=O)CCC1(Cc2ccccc2)[C@]2(C)OO[C@@]1(C)OO2 (some centres undefined),1.6
16,CC(=O)[C@@]1(Cc2ccc(Cl)cc2)CC[C@]2(C)OO[C@@]1(C)O2,3.2
17,CC(=O)[C@@]1(Cc2ccc(C)cc2)CC[C@]2(C)OO[C@@]1(C)O2,12.2
18,C[C@]12C[C@](C34CC5CC(CC(C5)C3)C4)(OO1)OO2,1.3
19,CC(=O)[C@@]1(Cc2ccc([N+](=O)[O-])cc2)CC[C@]2(C)OO[C@@]1(C)O2,7.7
20,C[Si]1(C)CC[Si](C)(C)OOC2(CCCCCCCCCCC2)OO1,7.2
21,CC[C@]12OO[C@@]3(CC(C)C)OC(C)(CCC31)O2,2.7

# System: Schistosoma mansoni
# Assay: Antischistosomal activity against newly transformed Schistosoma mansoni cercariae assessed as decrease in viability at 12.5 ug/ml after 72 hrs by microscopic analysis
# Type: functional, organism-based
# Conditions: not given
row,Compound,inhibition
1,CC(=O)[C@]1(Cc2ccc(C)cc2)CC[C@]2(C)OO[C@@]1(C)O2,inactive
2,"CCCC[C@]1(C(C)=O)CCC2(C)OOC1(C)O2 (single isomer, unassigned)",inactive

# System: Schistosoma mansoni
# Assay: Antischistosomal activity against adult Schistosoma mansoni assessed as decrease in viability after 72 hrs by microscopic analysis
# Type: functional, organism-based
# Conditions: not given
row,Compound,IC50 [µM]
1,CC(=O)[C@@]1(Cc2ccc(Br)cc2)CC[C@]2(C)OO[C@@]1(C)O2,4.2
2,CC(=O)[C@]1(Cc2ccc(Cl)cc2)CC[C@]2(C)OO[C@@]1(C)O2,4.2
3,CC(=O)[C@]1(Cc2ccc([N+](=O)[O-])cc2)CC[C@]2(C)OO[C@@]1(C)O2,7
4,CC(=O)CCC1(Cc2ccc(C)cc2)[C@]2(C)OO[C@@]1(C)OO2 (some centres undefined),9.8
5,CC(=O)CCC1(Cc2ccc(Cl)cc2)[C@]2(C)OO[C@@]1(C)OO2 (some centres undefined),15.4
6,CC(C)C[C@@]12OO[C@]3(C)OC(C)(CCC31)O2,2
7,CC(=O)[C@@]1(Cc2ccccc2)CC[C@]2(C)OO[C@@]1(C)O2,10.3
8,CC1[C@]2(C)OO[C@@]1(C13CC4CC(CC(C4)C1)C3)OO2 (some centres undefined),3.9
9,CC(=O)[C@]1(Cc2ccc(Br)cc2)CC[C@]2(C)OO[C@@]1(C)O2,6.6
10,CC(=O)CCC1(Cc2ccc(Br)cc2)[C@]2(C)OO[C@@]1(C)OO2 (some centres undefined),8.4
11,CC(=O)[C@]1(Cc2ccccc2)CC[C@]2(C)OO[C@@]1(C)O2,1.8
12,CC(=O)[C@]1(Cc2ccc(C)cc2)CC[C@]2(C)OO[C@@]1(C)O2,10
13,CC(C)C[C@]12OO[C@](C)(OO1)C2C12CC3CC(CC(C3)C1)C2 (some centres undefined),1.8
14,"CCCC[C@]1(C(C)=O)CCC2(C)OOC1(C)O2 (single isomer, unassigned)",12.2
15,CC[C@]12C[C@](C34CC5CC(CC(C5)C3)C4)(OO1)OO2,2
16,CC(=O)CCC1(Cc2ccccc2)[C@]2(C)OO[C@@]1(C)OO2 (some centres undefined),10.9
17,CC(=O)[C@@]1(Cc2ccc(Cl)cc2)CC[C@]2(C)OO[C@@]1(C)O2,11.2
18,CC(=O)[C@@]1(Cc2ccc(C)cc2)CC[C@]2(C)OO[C@@]1(C)O2,7.4
19,C[C@]12C[C@](C34CC5CC(CC(C5)C3)C4)(OO1)OO2,2
20,CC(=O)[C@@]1(Cc2ccc([N+](=O)[O-])cc2)CC[C@]2(C)OO[C@@]1(C)O2,22.8
21,CC[C@]12OO[C@@]3(CC(C)C)OC(C)(CCC31)O2,4.4

# System: Schistosoma mansoni
# Assay: Antischistosomal activity against adult Schistosoma mansoni assessed as decrease in viability at 25 ug/ml after 72 hrs by microscopic analysis
# Type: functional, organism-based
# Conditions: not given
row,Compound,inhibition
1,CC(C)(C)C1CCC2(CC1)OO[Si](C)(C)CC[Si](C)(C)OO2,inactive
2,C[Si]1(C)CC[Si](C)(C)OOC2(CCCCCCCCCCC2)OO1,inactive

# System: L6
# Assay: Cytotoxicity against rat L6 cells assessed as decrease in cell viability after 72 hrs by resazurin dye based fluorescence analysis
# Conditions: Rattus norvegicus, L6, 72 h
row,Compound,IC50 [µM]
1,CC(=O)[C@@]1(Cc2ccc(Br)cc2)CC[C@]2(C)OO[C@@]1(C)O2,8.1
2,CC(=O)[C@]1(Cc2ccc(Cl)cc2)CC[C@]2(C)OO[C@@]1(C)O2,2.7
3,CC(=O)[C@]1(Cc2ccc([N+](=O)[O-])cc2)CC[C@]2(C)OO[C@@]1(C)O2,22.7
4,CC(=O)CCC1(Cc2ccc(C)cc2)[C@]2(C)OO[C@@]1(C)OO2 (some centres undefined),2.5
5,CC(C)C[C@@]12OO[C@]3(C)OC(C)(CCC31)O2,4.9
6,CC1[C@]2(C)OO[C@@]1(C13CC4CC(CC(C4)C1)C3)OO2 (some centres undefined),< 0.4
7,CC(=O)[C@]1(Cc2ccc(Br)cc2)CC[C@]2(C)OO[C@@]1(C)O2,7.3
8,CC(=O)CCC1(Cc2ccc(Br)cc2)[C@]2(C)OO[C@@]1(C)OO2 (some centres undefined),2.5
9,CC(=O)[C@]1(Cc2ccccc2)CC[C@]2(C)OO[C@@]1(C)O2,5.4
10,CC(C)C[C@]12OO[C@](C)(OO1)C2C12CC3CC(CC(C3)C1)C2 (some centres undefined),1
11,CC[C@]12C[C@](C34CC5CC(CC(C5)C3)C4)(OO1)OO2,< 0.4
12,CC(=O)[C@@]1(Cc2ccc(C)cc2)CC[C@]2(C)OO[C@@]1(C)O2,15.3
13,C[C@]12C[C@](C34CC5CC(CC(C5)C3)C4)(OO1)OO2,< 0.4
14,CC[C@]12OO[C@@]3(CC(C)C)OC(C)(CCC31)O2,24.4

# Same assay, conditions: rat, l6, 72 h
row,Compound,Activity
1,CC(C)(C)C1CCC2(CC1)OO[Si](C)(C)CC[Si](C)(C)OO2,Non-toxic
2,CC(=O)CCC1(Cc2ccc(Cl)cc2)[C@]2(C)OO[C@@]1(C)OO2 (some centres undefined),Non-toxic
3,CC(=O)[C@@]1(Cc2ccccc2)CC[C@]2(C)OO[C@@]1(C)O2,Non-toxic
4,CC(=O)[C@]1(Cc2ccc(C)cc2)CC[C@]2(C)OO[C@@]1(C)O2,Non-toxic
5,"CCCC[C@]1(C(C)=O)CCC2(C)OOC1(C)O2 (single isomer, unassigned)",Non-toxic
6,CC(=O)CCC1(Cc2ccccc2)[C@]2(C)OO[C@@]1(C)OO2 (some centres undefined),Non-toxic
7,CC(=O)[C@@]1(Cc2ccc(Cl)cc2)CC[C@]2(C)OO[C@@]1(C)O2,Non-toxic
8,CC(=O)[C@@]1(Cc2ccc([N+](=O)[O-])cc2)CC[C@]2(C)OO[C@@]1(C)O2,Non-toxic
9,C[Si]1(C)CC[Si](C)(C)OOC2(CCCCCCCCCCC2)OO1,Non-toxic

# System: not listed separately
# Assay: Selectivity index, ratio of IC50 for rat L6 cells to IC50 for adult Schistosoma mansoni
# Conditions: not given
row,Compound,Ratio IC50
1,CC(=O)[C@@]1(Cc2ccc(Br)cc2)CC[C@]2(C)OO[C@@]1(C)O2,1.6
2,CC(=O)[C@]1(Cc2ccc(Cl)cc2)CC[C@]2(C)OO[C@@]1(C)O2,1.3
3,CC(=O)[C@]1(Cc2ccc([N+](=O)[O-])cc2)CC[C@]2(C)OO[C@@]1(C)O2,1.7
4,CC(=O)CCC1(Cc2ccc(C)cc2)[C@]2(C)OO[C@@]1(C)OO2 (some centres undefined),0.3
5,CC(C)C[C@@]12OO[C@]3(C)OC(C)(CCC31)O2,3
6,CC1[C@]2(C)OO[C@@]1(C13CC4CC(CC(C4)C1)C3)OO2 (some centres undefined),<0.1
7,CC(=O)[C@]1(Cc2ccc(Br)cc2)CC[C@]2(C)OO[C@@]1(C)O2,1.1
8,CC(=O)CCC1(Cc2ccc(Br)cc2)[C@]2(C)OO[C@@]1(C)OO2 (some centres undefined),0.4
9,CC(=O)[C@]1(Cc2ccccc2)CC[C@]2(C)OO[C@@]1(C)O2,2.9
10,CC(C)C[C@]12OO[C@](C)(OO1)C2C12CC3CC(CC(C3)C1)C2 (some centres undefined),0.5
11,CC[C@]12C[C@](C34CC5CC(CC(C5)C3)C4)(OO1)OO2,<0.2
12,CC(=O)[C@@]1(Cc2ccc(C)cc2)CC[C@]2(C)OO[C@@]1(C)O2,7.4
13,C[C@]12C[C@](C34CC5CC(CC(C5)C3)C4)(OO1)OO2,<0.2
14,CC[C@]12OO[C@@]3(CC(C)C)OC(C)(CCC31)O2,5.7

# System: Schistosoma mansoni
# Assay: Antischistosomal activity against Schistosoma mansoni strain Liberian cercariae infected in NMRI mouse assessed as reduction of worm burden in portal and mesenteric veins and liver at 400 mg/kg, po treated after 49 days of infection measured 16 to 21 days post treatment
# Type: functional
# Conditions: not given
row,Compound,inhibition in vivo at 400 mg/kg [%]
1,CC(=O)[C@@]1(Cc2ccc(Br)cc2)CC[C@]2(C)OO[C@@]1(C)O2,44.3
2,CC(=O)[C@]1(Cc2ccc(Cl)cc2)CC[C@]2(C)OO[C@@]1(C)O2,42.9
3,CC(C)C[C@@]12OO[C@]3(C)OC(C)(CCC31)O2,0
4,CC(=O)[C@]1(Cc2ccccc2)CC[C@]2(C)OO[C@@]1(C)O2,6.2
5,CC(=O)[C@@]1(Cc2ccc(C)cc2)CC[C@]2(C)OO[C@@]1(C)O2,9.9
6,CC[C@]12OO[C@@]3(CC(C)C)OC(C)(CCC31)O2,26.7
